From ChEMBL document CHEMBL5252515, “Discovery of 6-Amino-2-{[(1S)-1-methylbutyl]oxy}-9-[5-(1-piperidinyl)pentyl]-7,9-dihydro-8H-purin-8-one (GSK2245035), a Highly Potent and Selective Intranasal Toll-Like Receptor 7 Agonist for the Treatment of Asthma” (J Med Chem, 2016)
Calls of active or inactive are those of the source. No cut-off for these calls is given here.

What was measured:
[1] = target: T1, Toll-like receptor 7 (Homo sapiens, UniProt Q9NYK1); assay: Agonist activity at TLR7 in human whole blood assessed as induction of IL-1beta production after 20 hrs by electrochemiluminescence assay; assay type: tissue-based
T1 sequence (Q9NYK1 whole entry): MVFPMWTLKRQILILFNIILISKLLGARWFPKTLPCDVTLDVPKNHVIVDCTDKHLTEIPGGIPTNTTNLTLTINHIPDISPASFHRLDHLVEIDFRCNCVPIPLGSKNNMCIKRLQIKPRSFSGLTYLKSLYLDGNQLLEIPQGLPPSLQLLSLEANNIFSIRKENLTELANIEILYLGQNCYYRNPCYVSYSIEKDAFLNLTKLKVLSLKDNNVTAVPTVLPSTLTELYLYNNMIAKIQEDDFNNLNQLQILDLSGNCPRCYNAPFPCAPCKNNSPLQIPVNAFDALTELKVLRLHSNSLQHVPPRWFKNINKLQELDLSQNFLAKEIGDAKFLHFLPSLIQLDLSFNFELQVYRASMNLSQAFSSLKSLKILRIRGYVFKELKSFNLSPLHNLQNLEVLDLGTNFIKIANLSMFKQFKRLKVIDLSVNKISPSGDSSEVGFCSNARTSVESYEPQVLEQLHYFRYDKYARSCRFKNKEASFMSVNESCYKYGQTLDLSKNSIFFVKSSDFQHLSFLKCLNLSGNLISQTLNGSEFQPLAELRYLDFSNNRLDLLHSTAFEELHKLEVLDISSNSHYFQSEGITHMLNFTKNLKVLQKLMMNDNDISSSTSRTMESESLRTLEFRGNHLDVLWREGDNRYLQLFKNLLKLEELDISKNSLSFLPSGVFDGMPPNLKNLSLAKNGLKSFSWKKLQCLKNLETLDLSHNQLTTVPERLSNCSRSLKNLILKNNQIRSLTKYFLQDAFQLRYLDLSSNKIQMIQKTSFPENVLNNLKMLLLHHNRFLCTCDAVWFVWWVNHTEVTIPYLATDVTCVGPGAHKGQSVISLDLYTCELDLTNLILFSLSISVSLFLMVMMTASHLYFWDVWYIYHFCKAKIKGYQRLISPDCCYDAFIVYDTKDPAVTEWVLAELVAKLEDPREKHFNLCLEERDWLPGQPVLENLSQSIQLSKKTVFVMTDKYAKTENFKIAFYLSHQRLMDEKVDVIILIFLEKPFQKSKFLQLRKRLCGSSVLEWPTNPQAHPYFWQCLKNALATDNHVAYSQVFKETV

[2] = target: T1, Toll-like receptor 7; assay: Agonist activity at TLR7 in human whole blood assessed as induction of IFN-gamma production after 20 hrs by electrochemiluminescence assay; assay type: tissue-based
[3] = tested on: Rattus norvegicus; assay: Induction of IFNalpha production in rat at 0.4 mg/kg measured after 2 hrs; assay type: functional, organism-based
[4] = target: T2, Toll-like receptor 7 (Macaca fascicularis, UniProt B3Y652); assay: Agonist activity at TLR7 in cynomolgus monkey whole blood assessed as induction of TNFalpha production; assay type: tissue-based
T2 sequence (B3Y652 whole entry): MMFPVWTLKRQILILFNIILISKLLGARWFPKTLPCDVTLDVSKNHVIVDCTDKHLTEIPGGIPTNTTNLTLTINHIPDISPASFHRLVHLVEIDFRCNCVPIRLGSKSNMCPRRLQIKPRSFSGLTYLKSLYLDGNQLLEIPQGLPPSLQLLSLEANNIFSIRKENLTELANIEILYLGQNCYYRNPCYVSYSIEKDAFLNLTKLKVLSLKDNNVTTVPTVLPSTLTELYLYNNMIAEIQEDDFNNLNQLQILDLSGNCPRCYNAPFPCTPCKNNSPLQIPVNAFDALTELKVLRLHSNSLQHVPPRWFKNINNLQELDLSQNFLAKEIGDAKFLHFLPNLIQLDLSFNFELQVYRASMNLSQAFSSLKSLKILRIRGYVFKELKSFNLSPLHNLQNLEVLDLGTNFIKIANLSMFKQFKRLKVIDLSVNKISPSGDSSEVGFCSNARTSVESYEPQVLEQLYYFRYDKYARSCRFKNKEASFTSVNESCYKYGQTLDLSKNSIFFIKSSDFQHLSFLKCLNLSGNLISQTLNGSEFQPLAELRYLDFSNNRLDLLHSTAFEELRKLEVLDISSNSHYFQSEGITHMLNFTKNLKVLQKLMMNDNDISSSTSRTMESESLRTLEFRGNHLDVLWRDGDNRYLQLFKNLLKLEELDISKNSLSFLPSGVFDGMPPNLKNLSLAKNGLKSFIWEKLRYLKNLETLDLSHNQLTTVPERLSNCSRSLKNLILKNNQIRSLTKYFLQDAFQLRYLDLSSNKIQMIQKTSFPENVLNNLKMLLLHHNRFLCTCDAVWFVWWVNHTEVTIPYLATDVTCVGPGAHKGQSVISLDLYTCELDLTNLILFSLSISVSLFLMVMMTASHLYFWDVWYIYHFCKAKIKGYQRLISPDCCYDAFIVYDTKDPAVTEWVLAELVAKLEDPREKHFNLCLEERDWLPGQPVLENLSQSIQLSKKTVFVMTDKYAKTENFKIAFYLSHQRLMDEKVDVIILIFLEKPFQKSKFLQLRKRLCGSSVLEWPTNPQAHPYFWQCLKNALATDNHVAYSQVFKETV

[5] = tested on: PBMC; assay: Immunomodulatory activity in human PBMC assessed as reduction in house dust mite induced IL-5 level after 6 days; assay type: functional, cell-based; conditions: dose 0.01-10000 nM, time 6.0 day
[6] = tested on: Mus musculus; assay: Increase in IP-10 level in intranasally dosed BALB/c mouse nasal lavage after 6 hrs; assay type: functional, organism-based
[7] = target: T3, Toll-like receptor 7 (Macaca fascicularis) (UniProt B3Y652); assay: In vivo target occupancy at TLR7 in cynomolgus monkey assessed as fold increase in IFIT2 mRNA expression in nasal scrape at 3 ng/kg administered intranasally incubated for 24 hrs by TaqMan analysis (reference value: 2.1); assay type: functional
T3 sequence (whole entry): T2 sequence (B3Y652 whole entry)

[8] = target: T3, Toll-like receptor 7 (Macaca fascicularis); assay: In vivo target occupancy at TLR7 in cynomolgus monkey assessed as fold increase in CCL8 mRNA expression in nasal scrape at 30 ng/kg administered intranasally incubated for 24 hrs by TaqMan analysis (reference value: 1); assay type: functional
[9] = Toxicity in male rat assessed as NOAEL after 8 weeks; conditions: in vivo
[10] = tested on: PBMC; assay: Immunomodulatory activity in human PBMC assessed as IFNalpha production incubated for 6 days in presence of allergen house dust mite; assay type: functional, cell-based; conditions: time 6.0 day

With `CCC[C@H](C)Oc1nc(N)c2[nH]c(=O)n(CCCCCN3CCCCC3)c2n1` [GSK-2245035] the EC50 [1] was 5.01 µM, the EC50 [2] was 1.26 µM and the Activity [3] was “Active”. For the same compound, the EC50 [4] was 15.8 µM, the Activity [5] was “Dose-Dependent Effect” and the Activity [6] was “Active”. It also gave a fold change (FC) [7] of 108, a fold change (FC) [8] of 19300 and an NOAEL at 1344 h [9] of 0.406 mg/kg. The Activity [10] was “Active”.
